US20260355165A1, “2,3,4,9-TETRAHYDRO-1H-PYRIDO[3,4-B]INDOLE DERIVATIVES AS ESTROGEN RECEPTOR MODULATORS FOR THE TREATMENT OF CANCER” (Olema Pharmaceuticals, Inc., priority 2022, published 2026)

target: T1, estrogen receptor (Homo sapiens, UniProt P03372); assay: AP assay (alkaline phosphatase activity in ECC-1 cells), agonist mode (absence of E2) and antagonist mode (presence of 500 pM E2); type: cell-based; details: 3 days, AP activity normalized to 500 pM E2 alone, agonist and antagonist mode combined
T1 construct: endogenous in cells; host or cells: ECC-1 cells
T1 sequence (P03372 1-595): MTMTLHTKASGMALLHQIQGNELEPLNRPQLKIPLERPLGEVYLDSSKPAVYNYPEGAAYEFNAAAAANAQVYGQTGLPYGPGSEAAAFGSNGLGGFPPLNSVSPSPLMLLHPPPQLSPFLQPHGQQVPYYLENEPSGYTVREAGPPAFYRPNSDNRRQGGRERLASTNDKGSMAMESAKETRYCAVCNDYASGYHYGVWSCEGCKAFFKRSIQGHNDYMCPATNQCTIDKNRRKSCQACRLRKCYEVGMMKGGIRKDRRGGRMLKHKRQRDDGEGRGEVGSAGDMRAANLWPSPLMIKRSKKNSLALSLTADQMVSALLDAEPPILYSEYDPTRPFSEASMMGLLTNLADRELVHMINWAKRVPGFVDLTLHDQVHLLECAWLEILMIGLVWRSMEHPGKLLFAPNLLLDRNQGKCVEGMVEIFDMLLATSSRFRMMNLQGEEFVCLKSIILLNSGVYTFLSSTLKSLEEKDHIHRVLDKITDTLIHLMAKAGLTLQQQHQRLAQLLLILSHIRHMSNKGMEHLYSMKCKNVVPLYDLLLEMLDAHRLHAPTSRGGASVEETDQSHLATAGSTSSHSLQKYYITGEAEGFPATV
Procedure, shortened: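 Read-out is absorbance at 405 nm from p-nitrophenyl phosphate cleavage (40 min, 42 °C), expressed relative to 500 pM E2 alone. Compounds were applied to ECC-1 cells in hormone-depleted medium for 3 days, either alone (agonist) or alongside 500 pM E2 (antagonist).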

Row | Structure (SMILES) | Activity (estrogen receptor modulation, e.g., agonism and antagonism)
1 | CC1CN(Cc2cc3sc([C@@H]4c5[nH]c6ccccc6c5C[C@@H](C)N4CC(C)(C)F)cc3[nH]2)C1 [Compound I-66, 2-[(1S,3R)-2-(2-fluoro-2-methyl-propyl)-3-methyl-1,3,4,9-tetrahydropyrido[3,4-b]indol-1-yl]-5-[(3-methylazetidin-1-yl)methyl]-4H-thieno[3,2-b]pyrrole] | + (estrogen receptor agonism having (i) at least 80% increase in the E2-normalized signal in the AP assay (agonist mode) and (ii) no more than 80% reduction in the E2-normalized signal in the AP assay (antagonist mode))
2 | C[C@@H]1Cc2c([nH]c3ccccc23)[C@@H](c2cc3[nH]c(CNCCCF)cc3s2)N1CC(C)(C)F [Compound I-67, 3-fluoro-N-[[2-[(1S,3R)-2-(2-fluoro-2-methyl-propyl)-3-methyl-1,3,4,9-tetrahydropyrido[3,4-b]indol-1-yl]-4H-thieno[3,2-b]pyrrol-5-yl]methyl]propan-1-amine] | + (estrogen receptor agonism having (i) at least 80% increase in the E2-normalized signal in the AP assay (agonist mode) and (ii) no more than 80% reduction in the E2-normalized signal in the AP assay (antagonist mode))
3 | CC[C@H]1CCN(Cc2cc3sc([C@@H]4c5[nH]c6ccccc6c5C[C@@H](C)N4CC(C)(C)F)cc3[nH]2)C1 [Compound I-68, 5-[[(3S)-3-ethylpyrrolidin-1-yl]methyl]-2-[(1S,3R)-2-(2-fluoro-2-methyl-propyl)-3-methyl-1,3,4,9-tetrahydropyrido[3,4-b]indol-1-yl]-4H-thieno[3,2-b]pyrrole] | + (estrogen receptor agonism having (i) at least 80% increase in the E2-normalized signal in the AP assay (agonist mode) and (ii) no more than 80% reduction in the E2-normalized signal in the AP assay (antagonist mode))
4 | C[C@@H]1Cc2c([nH]c3ccccc23)[C@@H](c2cnc3[nH]c(CN4CC(CF)C4)cc3c2)N1CC(C)(C)F [Compound I-69, (1R,3R)-1-[2-[[3-(fluoromethyl)azetidin-1-yl]methyl]-1H-pyrrolo[2,3-b]pyridin-5-yl]-2-(2-fluoro-2-methyl-propyl)-3-methyl-1,3,4,9-tetrahydropyrido[3,4-b]indole] | ++ (estrogen receptor antagonism having (i) between 10% and 80% increase in the E2-normalized signal in the AP assay (agonist mode) and (ii) between 10% and 80% reduction in the E2-normalized signal in the AP assay (antagonist mode))
5 | C[C@@H]1Cc2c([nH]c3ccccc23)[C@@H](c2ccc3[nH]c(CN4CC(CF)C4)cc3n2)N1CC(C)(C)F [Compound I-70, (1S,3R)-1-[2-[[3-(fluoromethyl)azetidin-1-yl]methyl]-1H-pyrrolo[3,2-b]pyridin-5-yl]-2-(2-fluoro-2-methyl-propyl)-3-methyl-1,3,4,9-tetrahydropyrido[3,4-b]indole] | + (estrogen receptor agonism having (i) at least 80% increase in the E2-normalized signal in the AP assay (agonist mode) and (ii) no more than 80% reduction in the E2-normalized signal in the AP assay (antagonist mode))
6 | CC1CN(Cc2nc3cc([C@@H]4c5[nH]c6ccccc6c5C[C@@H](C)N4CC(C)(C)F)ccc3[nH]2)C1 [Compound I-71, (1R,3R)-2-(2-fluoro-2-methyl-propyl)-3-methyl-1-[2-[(3-methylazetidin-1-yl)methyl]-3H-benzimidazol-5-yl]-1,3,4,9-tetrahydropyrido[3,4-b]indole] | ++ (estrogen receptor antagonism having (i) between 10% and 80% increase in the E2-normalized signal in the AP assay (agonist mode) and (ii) between 10% and 80% reduction in the E2-normalized signal in the AP assay (antagonist mode))
7 | C[C@@H]1Cc2c([nH]c3ccccc23)[C@@H](c2ccc3nc(CN4CC(CF)C4)oc3c2)N1CC(C)(C)F [Compound I-72, 2-[[3-(fluoromethyl)azetidin-1-yl]methyl]-6-[(1R,3R)-2-(2-fluoro-2-methyl-propyl)-3-methyl-1,3,4,9-tetrahydropyrido[3,4-b]indol-1-yl]-1,3-benzoxazole] | + (estrogen receptor agonism having (i) at least 80% increase in the E2-normalized signal in the AP assay (agonist mode) and (ii) no more than 80% reduction in the E2-normalized signal in the AP assay (antagonist mode))
8 | C[C@@H]1Cc2c([nH]c3ccccc23)[C@@H](c2ccc3nc(CN4CC(CF)C4)cn3c2)N1CC(C)(C)F [Compound I-73, (1R,3R)-1-[2-[[3-(fluoromethyl)azetidin-1-yl]methyl]imidazo[1,2-a]pyridin-6-yl]-2-(2-fluoro-2-methyl-propyl)-3-methyl-1,3,4,9-tetrahydropyrido[3,4-b]indole] | + (estrogen receptor agonism having (i) at least 80% increase in the E2-normalized signal in the AP assay (agonist mode) and (ii) no more than 80% reduction in the E2-normalized signal in the AP assay (antagonist mode))
9 | C[C@@H]1Cc2c([nH]c3ccccc23)[C@@H](c2ccn3cc(CN4CC(CF)C4)nc3c2)N1CC(C)(C)F [Compound I-74, (1R,3R)-1-[2-[[3-(fluoromethyl)azetidin-1-yl]methyl]imidazo[1,2-a]pyridin-7-yl]-2-(2-fluoro-2-methyl-propyl)-3-methyl-1,3,4,9-tetrahydropyrido[3,4-b]indole] | +++ (estrogen receptor antagonism (i) with pIC50 greater than 7.5 and at least a 10% reduction in the E2-normalized signal in the AP assay (antagonist mode); and (ii) no more than 10% increase in E2-normalized signal in the AP assay (agonist mode))
10 | C[C@@H]1Cc2c([nH]c3ccccc23)[C@@H](c2ccc3oc(CN4CC(CF)C4)nc3c2)N1CC(C)(C)F [Compound I-75, 2-[[3-(fluoromethyl)azetidin-1-yl]methyl]-5-[(1R,3R)-2-(2-fluoro-2-methyl-propyl)-3-methyl-1,3,4,9-tetrahydropyrido[3,4-b]indol-1-yl]-1,3-benzoxazole] | +++ (estrogen receptor antagonism (i) with pIC50 greater than 7.5 and at least a 10% reduction in the E2-normalized signal in the AP assay (antagonist mode); and (ii) no more than 10% increase in E2-normalized signal in the AP assay (agonist mode))
11 | CC1CN(Cc2nc3cc([C@@H]4c5[nH]c6ccccc6c5C[C@@H](C)N4CC(C)(C)F)ccc3o2)C1 [Compound I-76, 5-[(1R,3R)-2-(2-fluoro-2-methyl-propyl)-3-methyl-1,3,4,9-tetrahydropyrido[3,4-b]indol-1-yl]-2-[(3-methylazetidin-1-yl)methyl]-1,3-benzoxazole] | +++ (estrogen receptor antagonism (i) with pIC50 greater than 7.5 and at least a 10% reduction in the E2-normalized signal in the AP assay (antagonist mode); and (ii) no more than 10% increase in E2-normalized signal in the AP assay (agonist mode))
12 | C[C@@H]1Cc2c([nH]c3ccccc23)[C@@H](c2ccc3oc(CN4CC5(CCC5)C4)nc3c2)N1CC(C)(C)F [Compound I-77, 2-(2-azaspiro[3.3]heptan-2-ylmethyl)-5-[(1R,3R)-2-(2-fluoro-2-methyl-propyl)-3-methyl-1,3,4,9-tetrahydropyrido[3,4-b]indol-1-yl]-1,3-benzoxazole] | +++ (estrogen receptor antagonism (i) with pIC50 greater than 7.5 and at least a 10% reduction in the E2-normalized signal in the AP assay (antagonist mode); and (ii) no more than 10% increase in E2-normalized signal in the AP assay (agonist mode))
13 | C[C@@H]1Cc2c([nH]c3ccccc23)[C@@H](c2cc3nc(CN4CC(CF)C4)oc3cc2F)N1CC(C)(C)F [Compound I-78, 6-fluoro-2-[[3-(fluoromethyl)azetidin-1-yl]methyl]-5-[(1R,3R)-2-(2-fluoro-2-methyl-propyl)-3-methyl-1,3,4,9-tetrahydropyrido[3,4-b]indol-1-yl]-1,3-benzoxazole] | + (estrogen receptor agonism having (i) at least 80% increase in the E2-normalized signal in the AP assay (agonist mode) and (ii) no more than 80% reduction in the E2-normalized signal in the AP assay (antagonist mode))
14 | C[C@@H]1Cc2c([nH]c3ccccc23)[C@@H](c2cc(F)c3oc(CN4CC(CF)C4)nc3c2)N1CC(C)(C)F [Compound I-79, 7-fluoro-2-[[3-(fluoromethyl)azetidin-1-yl]methyl]-5-[(1R,3R)-2-(2-fluoro-2-methyl-propyl)-3-methyl-1,3,4,9-tetrahydropyrido[3,4-b]indol-1-yl]-1,3-benzoxazole] | + (estrogen receptor agonism having (i) at least 80% increase in the E2-normalized signal in the AP assay (agonist mode) and (ii) no more than 80% reduction in the E2-normalized signal in the AP assay (antagonist mode))
15 | C[C@@H]1Cc2c([nH]c3ccccc23)[C@@H](c2ccc3oc(CN4CC(CF)C4)nc3c2)N1CC(F)(F)CO [Compound I-80, 2,2-difluoro-3-[(1R,3R)-1-[2-[[3-(fluoromethyl)azetidin-1-yl]methyl]-1,3-benzoxazol-5-yl]-3-methyl-1,3,4,9-tetrahydropyrido[3,4-b]indol-2-yl]propan-1-ol] | +++ (estrogen receptor antagonism (i) with pIC50 greater than 7.5 and at least a 10% reduction in the E2-normalized signal in the AP assay (antagonist mode); and (ii) no more than 10% increase in E2-normalized signal in the AP assay (agonist mode))
